Series [1] concerns the target T1, PPARα (Homo sapiens, UniProt Q07869).
T1 sequence (Q07869 1-468): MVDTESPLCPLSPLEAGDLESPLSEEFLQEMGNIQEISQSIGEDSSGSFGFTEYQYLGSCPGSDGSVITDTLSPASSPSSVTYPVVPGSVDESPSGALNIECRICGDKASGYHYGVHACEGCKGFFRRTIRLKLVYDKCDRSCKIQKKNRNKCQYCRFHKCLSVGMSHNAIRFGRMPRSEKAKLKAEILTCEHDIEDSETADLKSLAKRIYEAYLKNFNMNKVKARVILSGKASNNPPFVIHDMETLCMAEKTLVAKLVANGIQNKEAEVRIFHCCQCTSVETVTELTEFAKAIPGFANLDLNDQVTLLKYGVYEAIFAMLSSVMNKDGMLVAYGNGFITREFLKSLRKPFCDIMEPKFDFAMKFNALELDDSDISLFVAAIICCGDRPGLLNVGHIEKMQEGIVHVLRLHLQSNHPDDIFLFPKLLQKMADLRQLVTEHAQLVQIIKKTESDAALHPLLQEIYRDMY
To be noted: reporter gene assays; cited from earlier work.

Series [2] deals with T2, PPARγ (Homo sapiens, UniProt P37231).
T2 sequence (P37231 1-505): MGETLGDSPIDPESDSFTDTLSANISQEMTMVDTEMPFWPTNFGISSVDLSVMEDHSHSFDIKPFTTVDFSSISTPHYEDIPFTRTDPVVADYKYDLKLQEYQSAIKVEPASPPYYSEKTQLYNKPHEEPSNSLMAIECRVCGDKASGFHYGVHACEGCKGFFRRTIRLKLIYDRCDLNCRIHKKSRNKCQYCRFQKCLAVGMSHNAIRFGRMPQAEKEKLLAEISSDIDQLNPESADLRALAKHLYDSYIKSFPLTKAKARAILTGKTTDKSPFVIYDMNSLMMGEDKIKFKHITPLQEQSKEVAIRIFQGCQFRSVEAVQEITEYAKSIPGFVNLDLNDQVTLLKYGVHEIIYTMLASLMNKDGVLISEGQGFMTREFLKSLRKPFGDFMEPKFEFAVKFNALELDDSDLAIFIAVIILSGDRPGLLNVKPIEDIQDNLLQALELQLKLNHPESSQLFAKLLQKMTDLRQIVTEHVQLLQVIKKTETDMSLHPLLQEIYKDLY
To be noted: reporter gene assays; cited from earlier work.

Series [3] has as its system human adipocytes. The series can be described thus: mRNA expression (Taqman RT-PCR) in differentiated human adipocytes after 7 day treatment. The class given is cell-based. On the procedure: Carotenoids tested were β-carotene (βCar), Lycopene (lyco) and lutein. […] In our preclinical lab at PBRC, human subcutaneous adipocyte cell cultures were treated with naringenin at a concentration of 10 μM for seven days. […] Differentiated human adipocytes were treated with 10 μM naringenin for 7 days. Gene expression was analyzed using Taqman RT-PCR and values are expressed as fold increase over untreated controls (n=5). […] Activated AMPK induces glucose consumption and fat oxidation in adipose tissue. Carotenoids are vitamin A precursors found in foods and their consumption can cause reduction in adiposity and insulin resistance in pediatric clinical trials (Canas et al., 2012; Canas et al., 2017). After ingestion, they are metabolized into retinoid ligands for retinoic acid receptors (RAR) and retinoic X receptors (RXR) which are localized in the cell nucleus. RXRs form heterodimers with PPARs in transcriptional complexes known to target genes for energy expenditure and fat oxidation (Bonet et al., 2015).

The test system of series [4] is cytochrome P450 enzymes. To be noted: in vivo studies in humans; cited from earlier work.
In series [5] the test system is ovariectomized mice. To be noted: cited from earlier work.

Take `O=C1C[C@@H](c2ccc(O)cc2)Oc2cc(O)cc(O)c21` [naringenin]: the “activation of PPARα” value in series [1] is on record as “Direct activation”. Further, the “activation of PPARγ” value in series [2] is reported as “Direct activation”. Further, in series [3] (10 μM for seven days, human subcutaneous adipocytes), the “expression of UCP1, GLUT4 and CPT-1 genes” value was “Significant increases”. In addition, in series [3] (naringenin at 10 micromolar), the “Adiponectin RNA expression and adiponectin protein levels” value was “went up”; the “RNA and protein expression of uncoupling protein-1, adipose tissue glyceride lipase, carnitine palmitoyl transferase-1, glucose transporter-4, ChREBP alpha and beta” value is “increasing RNA and protein expression”. In addition, the “inhibition of cytochrome P450 enzymes” value in series [4] is listed as “not the main inhibitory compound in grapefruit”. Further, the “weight gain, glucose metabolism and muscle function” value in series [5] (ovariectomized mice fed a high fat diet) was “reversed the weight gain and improved glucose metabolism and muscle function”. In addition, in series [5] (ovariectomized mice), the “fasting glucose, insulin (and cholesterol) levels” value is “improved fasting glucose, insulin and cholesterol levels”; the “weight gain caused by ovariectomy” value is “prevented the weight gain”.

The record behind these values is US20210260022A1, “SYNERGY FOR INCREASING ENERGY EXPENDITURE AND INSULIN SENSITIVITY” (The Board of Supervisors of Louisiana State University and …, priority 2018, published 2021).
